The values below come from patent US9802880B2, “Cannabigerol derivatives” (VIVACELL BIOTECHNOLOGY ESPAÑA S.L., priority 2014, dated 2017).

In series [1] the test system is PPARg. Briefly: PPARg transactivation assay in human dermal primary fibroblasts. The format is cell-based. Particulars: 6 h treatment, FIG. 2. The text has this:
FIG. 2. PPARg Transactivation Assays in Human Dermal Primary Fibroblasts.

A further series concerns N2a cells. Briefly: Neuroprotection assay, glutamate-induced excitotoxicity in N2a cells. The format is cell-based. The following applies: 1 h pre-incubation, then 5 mM glutamate 24 h, FIG. 5. As for the experimental part:
N2a cells were pre-incubated for 1 h with compounds (II) to (V) and (XII) at the indicated concentrations. Then, cells were treated for 24 h with 5 mM glutamate to induce excitotoxicity, or cytotoxicity in neuronal cells induced by neurotransmitters. Cell viability was quantified by MTT assay. […] Control was set as 100% and data were referred to that value.
Cultured N2A cells were pre-incubated with the compounds II, III, IV, V and XII at the indicated concentrations for 1 h and then treated with 5 mM glutamate to induce excitotoxicity during 24 h (FIG. 5). Cytotoxicity was determined by the MTT method as described in example 3. Results are shown as mean±S.D. from at least three independent experiments, and expressed as percentage of cell viability against the control sample (−). Control was set as 100% and data were referred to that value.

Series [2] relates to PPARg. Briefly: PPARg transactivation assay in HEK-293 cells (GAL4-PPARγ / GAL4-luc). The following applies: for increase of PPARg activity: 1 μM concentration; for PPARg activation (fold) compared with CBG-Q: HEK-293 cells, 6 h treatment, FIG. 1; for PPARg transactivation (luciferase activity, fold induction over untreated cells): increasing doses, 6 h.
A further series relates to EAE mice. Put plainly: Experimental autoimmune encephalomyelitis (EAE), clinical score. The format is in vivo, C57BL/6 mice. Particulars: 5 mg/kg daily from day 6 post-immunization for 21 days, FIG. 8. How it is done: C57BL/6 mice were immunized with MOG35-55 and their clinical score evaluated daily. Mice were treated daily with compound (III) (10 mg/kg) on day 6 post-immunization and the 21 following days. […] Values are expressed as means±SEM for 10 animals per group.
C57BL/6 mice were immunized with MOG35-55 and their clinical score evaluated daily. Mice were treated daily with compound (XII) (5 mg/kg) on day 6 post-immunization and the 21 following days. […] Values are expressed as means±SEM for 6 animals per group.
EAE was induced in female C57BL/6 mice at 6-8 weeks of age by subcutaneous immunization with myelin oligodendrocyte glycoprotein polypeptide (MOG35-55) (300 μg) and 200 μg of Mycobacterium tuberculosis (H37Ra Difco, Franklin Lakes, N.J., USA) in a 1:1 mix with […] Freund's adjuvant (CFA, Sigma-Aldrich, Madrid, Spain). On the same day and 2 days later, mice were injected intraperitoneally (ip) with 200 ng of pertussis toxin (Sigma-Aldrich, Madrid, Spain) in 0.1 ml PBS. […] Treatment started at day 6 post-immunization (p.i.) and consisted in daily injections of compounds III (FIG. 6) and XII (FIG. 8) at the indicated doses or of the vehicle alone (DMSO/PBS) for the following 21 days. The mice were examined daily for clinical signs of EAE and disease scores were measured as follows: 0, no disease; 1, limp tail; 2, limp tail and hind limb weakness; 3, hind limb paralysis; 4, hind limb and front limb paralysis; 5, moribund and death. All animals were sacrificed 28 days (p.i.) for further analysis. Once sacrificed, animals were dissected and their spinal cords were rapidly removed and quickly frozen in RNAlater (Sigma-Aldric, Germany).

The subject of the next series is 3NP-lesioned mice. Put plainly: Huntington's disease 3NP model, behavioral score. It is filed as in vivo, C57BL/6 mice. Particulars: 10 mg/kg i.p., four injections, FIG. 9. As for the experimental part: Mice were subjected to behavioral tests for determining their neurological status after the treatment with compounds I (10 mg/kg) (A), III (10 mg/kg) (B) and XII (10 mg/kg) (C). Hind limb clasping, Locomotor activity, Hind limb dystonia and Truncal Dystonia were rated from 0 to 2 based on severity: a score of 0 typically indicates normal function and 2 seriously affected. Values are expressed as means±SEM for 8 animals per group.
(§1) Lesions of the striatum were induced with 3-NP in adult (16 week old; 30 g) male C57BL/6 mice (Harlan Ibérica, Barcelona, Spain). To this end, mice were subjected to seven intraperitoneal (i.p.) injections of 3NP (one injection each 12 hours) at a dose of 50 mg/kg (prepared in phosphate-buffered saline) for 3 days. These animals and their respective non-lesioned controls were used for pharmacological studies with compounds CBG-Q (compound I) and with compounds III and XII (FIG. 9). At least 6-8 animals were used per experimental group. Treatments consisted of four i.p. injections of the compounds at the indicated doses (one injection each 24 hours), or vehicle (DMSO 0.2%, BSA 5% in PBS) 30 min before the injections of 3NP. All animals were euthanized 12 hours after the last 3NP injection. Once euthanized, animals were dissected and their brains were rapidly removed. The right hemisphere was used to dissect the striatum, which was quickly frozen in RNAlater (Sigma-Aldrich, Germany) to analyzed inflammatory markers were by Real Time PCR. The left hemisphere was fixed in fresh 4% paraformaldehyde (in 0.1M phosphate buffered-saline) for 48 hours at 4° C. and embedded in paraffin wax for histological analysis. Mice were subjected to behavioral tests for determining their neurological status. We evaluated the general locomotor activity, the hindlimb clasping and dystonia, and the truncal dystonia. All behavioral tests were conducted prior to drug injections to avoid acute effects of the compounds under investigation.

The subject of series [3] is COX-2, iNOS, TNFα and IL-6. Briefly: 3NP model, inflammatory marker mRNAs in the striatum (real-time PCR). The format is in vivo, C57BL/6 mice. Particulars: 3NP-treated mice, 10 mg/kg, FIG. 10 and FIG. 11. How it is done:
Gene expression of inflammatory markers including COX-2, TNFα, IL-6 and iNOS, was down regulated in 3NP+compound III (10 mg/kg) treated mice compared with 3NP+Vehicle mice. Expression levels were calculated using the 2^−ΔΔct method. Values are expressed as means±SEM for 6 animals per group.
Gene expression of inflammatory markers including COX-2, TNFα, IL-6 and iNOS, was down regulated in 3NP+XII (10 mg/kg) treated mice compared with 3NP+Vehicle mice. Expression levels were calculated using the 2^−ΔΔct method. Values are expressed as means±SEM for 6 animals per group.
Lesions of the striatum were induced with 3-NP in adult (16 week old; 30 g) male C57BL/6 mice (Harlan Ibérica, Barcelona, Spain). […] The right hemisphere was used to dissect the striatum, which was quickly frozen in RNAlater (Sigma-Aldrich, Germany) to analyzed inflammatory markers were by Real Time PCR. […] We evaluated the general locomotor activity, the hindlimb clasping and dystonia, and the truncal dystonia. […]
Total RNA was isolated from striata (3NP model) or spinal cord (EAE model) using RNeasy Lipid Tissue Mini Kit (Qiagen, GmbH). The total amount of RNA extracted was quantitated by spectrometry at 260 nm and its purity from the ratio between the absorbance values at 260 and 280 nm. […] Expression levels were calculated using the 2^−ΔΔct method.

Series [4] has as its system striatal neurons, astrocytes and microglia. Put plainly: 3NP model, immunohistochemistry of striatum (NeuN, GFAP, Iba-1). It is filed as in vivo, C57BL/6 mice. Particulars: 3NP-lesioned mice, 10 mg/kg. As for the experimental part:
NeuN (neuronal marker), GFAP (astrocytes marker), and Ibal (microglia marker) were detected by immunostaining in the coronal sections of striatum of mice treated with vehicle, 3NP+ vehicle, 3NP+compoundXII (10 mg/kg) and XII (10 mg/kg). Quantification of NeuN (A), GFAP (B) and Ibal (C) positive cells in the mouse striatum. Total average number of neurons, astrocytes and microglia is shown. Values are expressed as means±SEM for 6 animals per group.
as §1, with “investigation. […]” for “investigation.”

Setting [5] is: text refers to FIG. 1 and FIG. 2.

Where only a bound is given, the exact number is not on record here.

With `CCCCCC1=C(C(=O)OC)C(=O)C(C/C=C(\C)CCC=C(C)C)=C(O)C1=O` [Compound II, 6-(3,7-dimethyl-octa-2,6-dienyl)-5-hydroxy-3-pentyl-2-metoxycarbonil-[1,4]benzoquinone], the “PPARg activation (fold) compared with CBG-Q” value (shortened to “PPARg activation (fold)”) in the series on PPARg [1] and in the series on PPARg [2] was “higher efficiency than CBG-Q” each time. In addition, the “protection from glutamate-induced cytotoxicity (cell viability, MTT)” value (“protection” below) in the series on N2a cells was “protect neuronal cells from glutamate-induced apoptosis”. Besides, the “increase of PPARg activity” value with PPARg [2] (setting [5]) is on record as at most 12 times. Moreover, the “potency to activate PPARg compared with CBG-Q” value in the series with PPARg [2] (concentrations of 1 to 25 μM, text refers to FIG. 1 and FIG. 2) was “significantly more potent than compound CBG-Q”.
Turning to `CCCCCNC1=C(CCCCC)C(=O)C(O)=C(C/C=C(\C)CCC=C(C)C)C1=O` [Compound IV, 6-(3,7-dimethyl-octa-2,6-dienyl)-5-hydroxy-3-pentyl-2-pentylamino-[1,4]benzoquinone], the “PPARg activation (fold)” value with PPARg [1] and in the series on PPARg [2] was “higher efficiency than CBG-Q” in each case. Moreover, the “protection” value in the series with N2a cells was “protect neuronal cells from glutamate-induced apoptosis”. Besides, the “PPARg transactivation (luciferase activity, fold induction over untreated cells)” value in the series on PPARg [2] (setting [5]) is “most active compounds”.
Regarding `CCCCCC1=C(NCC(C)C)C(=O)C(C/C=C(\C)CCC=C(C)C)=C(O)C1=O` [Compound V, 6-(3,7-dimethyl-octa-2,6-dienyl)-5-hydroxy-3-pentyl-2-isobutylamino [1,4]benzoquinone], the “PPARg activation (fold)” value in the series with PPARg [1] and in the series with PPARg [2] was “higher efficiency than CBG-Q” in each case. Also, in the series on N2a cells, the “protection” value is listed as “protect neuronal cells from glutamate-induced apoptosis”. Moreover, the “PPARg transactivation (luciferase activity, fold induction over untreated cells)” value in the series on PPARg [2] (setting [5]) is recorded as “most active compounds”.
Consider `CCCCCC1=C(NC)C(=O)C(C/C=C(\C)CCC=C(C)C)=C(O)C1=O` [Compound VII, 6-(3,7-dimethyl-octa-2,6-dienyl)-5-hydroxy-3-pentyl-2-methylamino-[1,4]benzoquinone], for which the “PPARg activation (fold)” value with PPARg [2] is listed as “higher efficiency than CBG-Q”.
Still for that read-out and setting: then `CCCCCC1=C(NC(C)C)C(=O)C(C/C=C(\C)CCC=C(C)C)=C(O)C1=O` [Compound VIII, 6-(3,7-imethyl-octa-2,6-dienyl)-5-hydroxy-3-pentyl-2-isopropylamino-[1,4]benzoquinone], with “higher efficiency than CBG-Q”.
In the case of `CCCCCC1=C(C2=C(CCCCC)C(=O)C(O)=C(C/C=C(\C)CCC=C(C)C)C2=O)C(=O)C(C/C=C(\C)CCC=C(C)C)=C(O)C1=O` [Compound XII, 3,3′-bis((E)-3,7-dimethylocta-2,6-dienyl)-4,4′-dihydroxy-6,6′-dipentyl-1,1′-bi(cyclohexa-3,6-diene)-2,2′,5,5′-tetraone], the “protection” value in the series with N2a cells is reported as “protect neuronal cells from glutamate-induced apoptosis”. Also, the “clinical symptoms in EAE mice” value in the series with EAE mice is given as “alleviated the clinical symptoms in EAE mice to the same extent than compound III”. The “clinical symptoms induced by 3-NP intoxication (hind limb clasping, locomotor activity, hind limb dystonia, truncal dystonia)” value with 3NP-lesioned mice is recorded as “clearly alleviates such symptomatology”. For the same molecule, the “up-regulation of pro-inflammatory markers COX-2, iNOS, TNFα and IL-6 in the striatum” value in series [3] is recorded as “attenuated the up-regulation”. The “striatal neurons, NeuN staining” value in series [4] (FIG. 12A) was “preservation of striatal neurons”. Further, in series [4] (FIG. 12B), the “GFAP+ cells (astrocytes) in striatum” value is “counteracted the lost of GFAP^+ cells”. Moreover, the “reactive microgliosis (Iba-1+ cells) in striatum” value in series [4] (FIG. 12C) was “prevented the induction of reactive microgliosis”.
As to `CN(CCOc1ccc(CC2SC(=O)NC2=O)cc1)c1ccccn1` (centres unmarked) [Rosiglitazone, reference compound], in the series with PPARg [2] (setting [5]), the “increase of PPARg activity” value is “more than 100 times”.
